Test results published in patent US20240383850A1, “INDOLE DERIVATIVES AS SEROTONERGIC AGENTS USEFUL FOR THE TREATMENT OF DISORDERS RELATED THERETO” (Mindset Pharma Inc., priority 2021, published 2024).
Read-outs that look alike come from different tables or passages of the source.

Experiments:
C57BL/6J mice [1] = assay: Mouse head twitch response (HTR); format: in vivo; settings: for duration of HT expression: at 10-30 mg/kg
Method: (§1) The effect of different doses of representative compounds of Formula I was evaluated on head-twitch response (HTR) and other behavioural responses indicative of serotonin syndrome as behavior-based models of psychedelic activity.
(§2) Male, C57BL/6J mice (body weight range 20-30 g) were dosed with the appropriate dose of test article, and following a 1-minute pre-treatment time, placed in individual observation chambers. Animals were visually assessed for the incidence head twitches continuously over a 1 hr period. Head twitches were defined as a rapid jerk of the head which was not elicited by an external tactile stimulus (Come and Pickering, Psychopharmacologia, 1967, 11(1): 65-78). Each head twitch was individually counted by a trained observer, and the data expressed as the mean±SEM of 6-10 mice per group. Mice were used in a single experiment only.

C57BL/6J mice [2] = assay: Behavioural responses indicative of serotonin syndrome and motor activity, observed in the mouse head twitch study; format: in vivo
Method: as §1, §2

human 5-HT2A receptor [3] = target: T1, human 5-HT2A receptor (Homo sapiens, UniProt P28223); assay: biochemical
T1 sequence (P28223 whole entry): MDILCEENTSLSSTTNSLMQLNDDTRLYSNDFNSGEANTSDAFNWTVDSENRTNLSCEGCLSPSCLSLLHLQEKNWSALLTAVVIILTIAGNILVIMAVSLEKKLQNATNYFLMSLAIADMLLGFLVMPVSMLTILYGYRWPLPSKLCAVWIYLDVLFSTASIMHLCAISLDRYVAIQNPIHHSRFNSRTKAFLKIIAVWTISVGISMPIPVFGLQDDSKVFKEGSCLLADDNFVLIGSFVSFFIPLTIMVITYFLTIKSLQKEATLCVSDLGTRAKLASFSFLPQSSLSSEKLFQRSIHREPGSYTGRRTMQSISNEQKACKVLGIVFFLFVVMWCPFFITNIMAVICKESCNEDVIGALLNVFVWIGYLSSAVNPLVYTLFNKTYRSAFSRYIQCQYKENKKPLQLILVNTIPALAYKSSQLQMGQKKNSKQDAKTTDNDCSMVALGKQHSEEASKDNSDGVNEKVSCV

[4] = target: human 5-HT2A (h5-HT2A) receptor (Homo sapiens, UniProt P28223); assay: FLIPR calcium assay, human 5-HT2A, agonist mode
Chain of human 5-HT2A (h5-HT2A) receptor (P28223 whole entry): as above

human 5-HT2A receptor [5] = target: T1, human 5-HT2A receptor; settings: read-out: h5-HT2A IC50; competition with [3H]-ketanserin, cell membranes

Compound	IC50 (human 5-HT2A receptor [3]) [µM]	EC50 [4] [µM]	further results
[2H]C([2H])(c1c[nH]c2ccc(OC)cc12)[C@H]1CCCN1C(=O)CCCCCCC/C=C\C/C=C\CCCCC [(R)—I-51]			ED50 (C57BL/6J mice [1]; Mus musculus, male C57BL/6J mice, SC, head twitches counted over 1 hr): 2.8 mg/kg; head twitch response expression (C57BL/6J mice [1]; mice, 1-60 mg/kg SC, compared to 5-MeO DMT): elicited a robust head twitch response expression; duration of HT expression (C57BL/6J mice [1]; mice, SC): 0 to 30 min; motor activity (C57BL/6J mice [2]; 1-30 mg/kg, not formally measured): did not reduce motor activity; signs of 5-HT syndrome (whole body twitches, FPT, Straub tail) (C57BL/6J mice [2]; up to 60 mg/kg SC): did not induce signs of 5-HT syndrome
COc1ccc2[nH]cc(CCN(C)C)c2c1 [Compound 5-MeO-DMT, 5-MeO-DMT, reference compound]			ED50 head twitch response (C57BL/6J mice [1]; male C57BL/6J mice, SC, head twitches counted over 1 hr): 8 mg/kg; duration of HT expression (C57BL/6J mice [1]; mice, SC): 0 to 20 min
CCCCC/C=C\C/C=C\CCCCCCCC(=O)N(C)CCc1c[nH]c2ccccc12 [Compound I-1, (9Z,12Z)—N-(2-(1H-Indol-3-yl)ethyl)-N-methyloctadeca-9,12-dienamide]	10 to 30	> 30	
CCCCC/C=C\C/C=C\CCCCCCCC(=O)N(C)CCc1c[nH]c2ccc(OC)cc12 [Compound I-21, (9Z,12Z)—N-(2-(5-Methoxy-1H-indol-3-yl)ethyl)-N-methyloctadeca-9,12-dienamide]	10 to 30	> 30	
CCCCC/C=C\C/C=C\CCCCCCCC(=O)N1CCC[C@@H]1Cc1c[nH]c2ccccc12 [Compound I-46, (9Z,12Z)-1-((R)-2-((1H-Indol-3-yl)methyl)pyrrolidin-1-yl)octadeca-9,12-dien-1-one]	> 30	> 30	
CCCCC/C=C\C/C=C\CCCCCCCC(=O)N1CCC[C@@H]1Cc1c[nH]c2ccc(OC)cc12 [Compound I-55, (9Z,12Z)-1-((R)-2-((5-Methoxy-1H-indol-3-yl)methyl)pyrrolidin-1-yl)octadeca-9,12-dien-1-one]	> 30	> 30	
CCCCC/C=C\C/C=C\CCCCCCCC(=O)N1CCC(c2c[nH]c3ccc(OC)cc23)C1 (stereo not shown) [Compound I-81, (9Z,12Z)-1-(3-(5-Methoxy-1H-indol-3-yl)pyrrolidin-1-yl)octadeca-9,12-dien-1-one]	> 30	> 30	
CCCCC/C=C\C/C=C\CCCCCCCC(=O)N1CCC(c2c[nH]c3ccccc23)C1 (stereo not shown) [Compound I-84, (9Z,12Z)-1-(3-(1H-Indol-3-yl)pyrrolidin-1-yl)octadeca-9,12-dien-1-one]	10 to 30	> 30	
CCCCC/C=C\C/C=C\CCCCCCCC(=O)N1CCC(c2c[nH]c3ccccc23)CC1 [Compound I-87, (9Z,12Z)-1-(4-(1H-Indol-3-yl)piperidin-1-yl)octadeca-9,12-dien-1-one]	10 to 30	> 30	
CCCCC/C=C\C/C=C\CCCCCCCC(=O)N1CCC(c2c[nH]c3ccc(OC)cc23)CC1 [Compound I-88, (9Z,12Z)-1-(4-(5-Methoxy-1H-indol-3-yl)piperidin-1-yl)octadeca-9,12-dien-1-one]	10 to 30	> 30	
CN(C)CCc1c[nH]c2ccccc12 [DMT]			EC50 ([4]; read-out: h5-HT2A EC50, FLIPR calcium assay, agonist mode): < 10 µM; IC50 (human 5-HT2A receptor [5]): < 10 µM
